For 1 compound, EC50 and IC50 results are on record in patent US20080107623A1, “Inhibitors of Hepatitis C Virus” (Bristol-Myers Squibb Company, priority 2006, published 2008).

Like-named read-outs stand apart in the source and are kept apart here.

The test system of test [1] is HCV replicon in HUH-7 cells. Briefly: HCV replicon FRET assay. The format is cell-based, HCV strain 1b. The following applies: Hepatitis C virus. The source says:
An HCV replicon whole cell system was established as described by Lohmann V, Korner F, Koch J, Herian U, Theilmann L, Bartenschlager R., Science 285(5424):110-3 (1999). This system enabled us to evaluate the effects of our HCV Protease compounds on HCV RNA replication. Briefly, using the HCV strain 1b sequence described in the Lohmann paper (Assession number: AJ238799), an HCV cDNA was synthesized by Operon Technologies, Inc. (Alameda, Calif.), and the full-length replicon was then assembled in plasmid pGem9zf(+) (Promega, Madison, Wis.) using standard molecular biology techniques. The replicon consists of (i) the HCV 5′ UTR fused to the first 12 amino acids of the capsid protein, (ii) the neomycin phosphotransferase gene (neo), (iii) the IRES from encephalomyocarditis virus (EMCV), and (iv) HCV NS3 to NS5B genes and the HCV 3′ UTR. Plasmid DNAs were linearized with ScaI and RNA transcripts were synthesized in vitro using the T7 MegaScript transcription kit (Ambion, Austin, Tex.) according to manufacturer's directions. In vitro transcripts of the cDNA were transfected into the human hepatoma cell line, HUH-7. […] Resulting cell lines were characterized for positive and negative strand RNA production and protein production over time.
The HCV replicon FRET assay was developed to monitor the inhibitory effects of compounds described in the disclosure on HCV viral replication. HUH-7 cells, constitutively expressing the HCV replicon, were grown in Dulbecco's Modified Eagle Media (DMEM) (Gibco-BRL) containing 10% Fetal calf serum (FCS) (Sigma) and 1 mg/ml G418 (Gibco-BRL). Cells were seeded the night before (1.5×10^4 cells/well) in 96-well tissue-culture sterile plates. Compound and no compound controls were prepared in DMEM containing 4% FCS, 1:100 Penicillin/Streptomysin (Gibco-BRL), 1:100 L-glutamine and 5% DMSO in the dilution plate (0.5% DMSO final concentration in the assay). Compound/DMSO mixes were added to the cells and incubated for 4 days at 37° C. After 4 days, cells were first assessed for cytotoxicity using alamar Blue (Trek Diagnotstic Systems) for a CC50 reading. The toxicity of compound (CC50) was determined by adding 1/10th volume of alamar Blue to the media incubating the cells. After 4 hours, the fluorescence signal from each well was read, with an excitation wavelength at 530 nm and an emission wavelength of 580 nm, using the Cytofluor Series 4000 (Perspective Biosystems). Plates were then rinsed thoroughly with Phosphate-Buffered Saline (PBS) (3 times 150 μl). The cells were lysed with 25 μl of a lysis assay reagent containing an HCV protease substrate (5× cell Luciferase cell culture lysis reagent (Promega #E153A) diluted to 1× with distilled water, NaCl added to 150 mM final, the FRET peptide substrate (as described for the enzyme assay above) diluted to 10 μM final from a 2 mM stock in 100% DMSO. […]. The plate was then placed into the Cytofluor 4000 instrument which had been set to 340 nm excitation/490 nm emission, automatic mode for 21 cycles and the plate read in a kinetic mode. EC50 determinations were carried out as described for the IC50 determinations.

For test [2], the system named is human pancreatic chymotrypsin. Description: Specificity assay, chymotrypsin (pNA substrate). The format is biochemical. The protocol: The specificities of compounds of the present disclosure were determined against a variety of serine proteases: human neutrophil elastase (HNE), porcine pancreatic elastase (PPE) and human pancreatic chymotrypsin and one cysteine protease: human liver cathepsin B. In all cases, a 96-well plate format protocol using colorimetric p-nitroaniline (pNA) substrate or fluorometric Amino-Methyl-Coumarin (AMC) substrate, specific for each enzyme was used as described previously (PCT Patent Application No. WO 00/09543) with some modifications. All enzymes were purchased from Sigma or EMDbiosciences while the substrates were from Bachem.
Each pNA assay included a 2 h enzyme-inhibitor pre-incubation at room temperature followed by addition of substrate and hydrolysis to ˜15% conversion as measured on a Spectramax Pro microplate reader. The cathepsin B assay was initiated by adding substrate to a 10 min enzyme-inhibitor pre-incubation at room temperature, and the assay plate measured immediately using the Cytofluor Series 4000. Compound concentrations varied from 100 to 0.4 μM depending on their potency.
50 mM Tris(hydroxymethyl)aminomethane hydrochloride (Tris-HCl) pH 8, 0.5 M Sodium Sulfate (Na2SO4), 50 mM NaCl, 0.1 mM EDTA, 3% DMSO, 0.01% Tween-20 with: […]
The percentage of inhibition was calculated using the formula: [1−((UVinh−UVblank)/(UVctl−UVblank))]×100 […]

For the compound `COc1c(O[C@@H]2C[C@H]3C(=O)N[C@]4(C(=O)NS(=O)(=O)C5CC5)C[C@H]4/C=C\CCCCC[C@H](NC(=O)OC(C)(C)C)C(=O)N3C2)ccc2c(Cl)nccc12` [Compound 3], the 50% effective concentration (EC50) in test [1] (96 h, HUH-7 replicon cells, 4 days, read-out: EC50 in the replicon FRET assay) was 14.6 nM; in test [1] (Huh-7, HCV replicon, which replicon assay not stated, read-out: EC50 Activity Range) it was less than 100 nM. The compound also yielded a half-maximal inhibitory concentration (IC50) in test [2] greater than 100000 nM.
